This passage reports T/C results from PubChem BioAssay AID308 (DTP/NCI, 2004).

Several values for one entry are separate records, joined by “and”; a condition that tells them apart may be missing. Equal entries are not always repeated. Toxic doses and inconclusive results are not listed.

The subject of this assay is BDF1 mice, L1210 6-MP/6-TG resistant leukemia ip, survival T/C. The assay can be described thus: NCI In Vivo Anticancer Drug Screen. Data for tumor model L1210 Leukemia resistant to 6-MP and 6-Thioguanine; NSC 755, NSC 752 (intraperitoneal) in B6D2F1 (BDF1) mice. As to conditions: endpoint: mean survival time, higher = longer survival. The procedure: The antitumor activity of compounds was measured in mice bearing transplantable tumors. Survival or tumor size were measured and the results are expressed as the measurement made in the treated group (T) divided by the measurement made in the vehicle treated control group (C). The tumor model used in this assay is L1210 Leukemia resistant to 6-MP and 6-Thioguanine; NSC 755, NSC 752 (intraperitoneal) in B6D2F1 (BDF1) mice

Setting [1] is: dose: 25.0 mg/kg/injection, schedule: Q01DX Z (ip), vehicle: carboxymethylcellulose (CMC).

Turning to `CN(Cc1cnc2nc(N)nc(N)c2n1)c1c(Cl)cc(C(=O)NC(CCC(=O)O)C(=O)O)cc1Cl` (stereo not given), the T/C is 154 % of control (dose: 0.31 mg/kg/injection, schedule: Q01DX015 (ip), vehicle: carboxymethylcellulose (CMC)); 238 % of control (dose: 0.62 mg/kg/injection, schedule: Q01DX015 (ip), vehicle: carboxymethylcellulose (CMC)); 307 % of control (dose: 1.25 mg/kg/injection, schedule: Q01DX015 (ip), vehicle: carboxymethylcellulose (CMC)); 175 % of control and 320 % of control (dose: 2.5 mg/kg/injection, schedule: Q01DX015 (ip), vehicle: carboxymethylcellulose (CMC)); 219 % of control and 330 % of control (dose: 5.0 mg/kg/injection, schedule: Q01DX015 (ip), vehicle: carboxymethylcellulose (CMC)); 348 % of control (dose: 9.0 mg/kg/injection, schedule: Q02DX010 (ip), vehicle: carboxymethylcellulose (CMC)). The T/C is 162 % of control (dose: 10.0 mg/kg/injection, schedule: Q01DX015 (ip), vehicle: carboxymethylcellulose (CMC)); 293 % of control (dose: 13.0 mg/kg/injection, schedule: Q01DX015 (ip), vehicle: carboxymethylcellulose (CMC)); 348 % of control (dose: 13.0 mg/kg/injection, schedule: Q02DX010 (ip), vehicle: carboxymethylcellulose (CMC)); 262 % of control (dose: 20.0 mg/kg/injection, schedule: Q01DX015 (ip), vehicle: carboxymethylcellulose (CMC)); 308 % of control (dose: 20.0 mg/kg/injection, schedule: Q02DX010 (ip), vehicle: carboxymethylcellulose (CMC)); 168 % of control and 181 % of control (dose: 30.0 mg/kg/injection, schedule: Q01DX015 (ip), vehicle: carboxymethylcellulose (CMC)). In addition, the T/C (dose: 30.0 mg/kg/injection, schedule: Q02DX010 (ip), vehicle: carboxymethylcellulose (CMC)) was 310 % of control; the T/C (dose: 45.0 mg/kg/injection, schedule: Q01DX015 (ip), vehicle: carboxymethylcellulose (CMC)) was 269 % of control; the T/C (dose: 45.0 mg/kg/injection, schedule: Q02DX010 (ip), vehicle: carboxymethylcellulose (CMC)) was 343 % of control; the T/C (dose: 67.0 mg/kg/injection, schedule: Q02DX010 (ip), vehicle: carboxymethylcellulose (CMC)) is 348 % of control; the T/C (dose: 67.5 mg/kg/injection, schedule: Q01DX015 (ip), vehicle: carboxymethylcellulose (CMC)) is 205 % of control; the T/C (dose: 80.0 mg/kg/injection, schedule: Q01DX015 (ip), vehicle: carboxymethylcellulose (CMC)) is 116 % of control. In addition, the T/C by setting is: (dose: 80.0 mg/kg/injection, schedule: Q01DX015 (ip), vehicle: saline) 194 % of control; (dose: 100.0 mg/kg/injection, schedule: Q01DX015 (ip), vehicle: carboxymethylcellulose (CMC)) 121 % of control; (dose: 100.0 mg/kg/injection, schedule: Q01DX015 (ip), vehicle: saline) 233 % of control; (dose: 120.0 mg/kg/injection, schedule: Q01DX015 (ip), vehicle: carboxymethylcellulose (CMC)) 104 % of control; (dose: 120.0 mg/kg/injection, schedule: Q01DX015 (ip), vehicle: saline) 112 % of control; (dose: 75.0 micrograms/kg/injection, schedule: Q01DX015 (ip), vehicle: carboxymethylcellulose (CMC)) 307 % of control. Moreover, the T/C is 300 % of control (dose: 150.0 micrograms/kg/injection, schedule: Q01DX015 (ip), vehicle: carboxymethylcellulose (CMC)); 293 % of control (dose: 310.0 micrograms/kg/injection, schedule: Q01DX015 (ip), vehicle: carboxymethylcellulose (CMC)); 313 % of control (dose: 620.0 micrograms/kg/injection, schedule: Q01DX015 (ip), vehicle: carboxymethylcellulose (CMC)).
Consider `CCOC(=O)NP(=O)(N1CC1(C)C)N1CC1(C)C` (stereo not given), for which the T/C is 113 % of control (dose: 31.0 mg/kg/injection, schedule: Q01DX Z (ip), vehicle: saline); 160 % of control (dose: 62.0 mg/kg/injection, schedule: Q01DX Z (ip), vehicle: saline); 228 % of control (dose: 62.5 mg/kg/injection, schedule: Q01DX Z (ip), vehicle: saline); 182 % of control (dose: 93.0 mg/kg/injection, schedule: Q01DX Z (ip), vehicle: saline); 160 % of control and 207 % of control (dose: 125.0 mg/kg/injection, schedule: Q01DX Z (ip), vehicle: saline); 207 % of control (dose: 187.0 mg/kg/injection, schedule: Q01DX Z (ip), vehicle: saline).
In the case of `c1nc(Sc2ncnc3nc[nH]c23)c2[nH]cnc2n1`, the T/C was 100 % of control (dose: 37.0 mg/kg/injection, schedule: Q01DX009 (ip), vehicle: other); 107 % of control (dose: 75.0 mg/kg/injection, schedule: Q01DX009 (ip), vehicle: other); 95 % of control (dose: 150.0 mg/kg/injection, schedule: Q01DX009 (ip), vehicle: other); 91 % of control (dose: 300.0 mg/kg/injection, schedule: Q01DX009 (ip), vehicle: other).
Turning to `Clc1ncnc2nc[nH]c12`, the T/C reads like this: (dose: 12.5 mg/kg/injection, schedule: Q01DX Z (ip), vehicle: carboxymethylcellulose (CMC)) 97 % of control; under setting [1], 93 % of control; (dose: 50.0 mg/kg/injection, schedule: Q01DX Z (ip), vehicle: carboxymethylcellulose (CMC)) 92 % of control and 104 % of control; (dose: 100.0 mg/kg/injection, schedule: Q01DX Z (ip), vehicle: carboxymethylcellulose (CMC)) 90 % of control; (dose: 200.0 mg/kg/injection, schedule: Q01DX001 (ip), vehicle: carboxymethylcellulose (CMC)) 99 % of control and 104 % of control; (dose: 200.0 mg/kg/injection, schedule: Q01DX Z (ip), vehicle: carboxymethylcellulose (CMC)) 90 % of control. The T/C is 102 % of control and 107 % of control (dose: 267.0 mg/kg/injection, schedule: Q01DX001 (ip), vehicle: carboxymethylcellulose (CMC)); 88 % of control (dose: 300.0 mg/kg/injection, schedule: Q01DX Z (ip), vehicle: carboxymethylcellulose (CMC)); 100 % of control and 102 % of control (dose: 400.0 mg/kg/injection, schedule: Q01DX001 (ip), vehicle: carboxymethylcellulose (CMC)).
For `Nc1ncnc2[nH]ncc12`, the T/C is 105 % of control (dose: 7.5 mg/kg/injection, schedule: Q01DX Z (ip), vehicle: carboxymethylcellulose (CMC)); 92 % of control (dose: 10.0 mg/kg/injection, schedule: Q01DX Z (ip), vehicle: carboxymethylcellulose (CMC)); 94 % of control (dose: 15.0 mg/kg/injection, schedule: Q01DX Z (ip), vehicle: carboxymethylcellulose (CMC)); 97 % of control under setting [1].
On to `CS(=O)(=O)OCC(O)C(O)COS(C)(=O)=O` (stereo not given), for which the T/C (dose: 62.0 mg/kg/injection, schedule: Q01DX Z (ip), vehicle: carboxymethylcellulose (CMC)) is 103 % of control; the T/C (dose: 125.0 mg/kg/injection, schedule: Q01DX Z (ip), vehicle: carboxymethylcellulose (CMC)) is 101 % of control; the T/C (dose: 250.0 mg/kg/injection, schedule: Q01DX Z (ip), vehicle: carboxymethylcellulose (CMC)) was 122 % of control.
As for `CN(C)c1nc(N(C)C)nc(N(C)C)n1`, the T/C (dose: 4.3 mg/kg/injection, schedule: Q01DX Z (ip), vehicle: other) is 101 % of control; the T/C (dose: 8.7 mg/kg/injection, schedule: Q01DX Z (ip), vehicle: other) is 111 % of control; the T/C (dose: 17.5 mg/kg/injection, schedule: Q01DX Z (ip), vehicle: other) is 109 % of control; the T/C (dose: 35.0 mg/kg/injection, schedule: Q01DX Z (ip), vehicle: other) is 111 % of control; the T/C (dose: 50.0 mg/kg/injection, schedule: Q01DX Z (ip), vehicle: other) is 110 % of control; the T/C (dose: 100.0 mg/kg/injection, schedule: Q01DX Z (ip), vehicle: other) is 98 % of control.
As to `NC(=O)N(CCCl)N=O`, the T/C (dose: 0.47 mg/kg/injection, schedule: Q01DX Z (ip), vehicle: saline) was 220 % of control; the T/C (dose: 0.93 mg/kg/injection, schedule: Q01DX Z (ip), vehicle: saline) was 265 % of control; the T/C (dose: 1.25 mg/kg/injection, schedule: Q01DX Z (ip), vehicle: saline) was 236 % of control; the T/C (dose: 1.87 mg/kg/injection, schedule: Q01DX Z (ip), vehicle: saline) was 158 % of control; the T/C (dose: 5.0 mg/kg/injection, schedule: Q01DX Z (ip), vehicle: saline) was 92 % of control.
With `CC(=O)OCC1OC(n2cnc3c(=S)nc(N)[nH]c32)C(OC(C)=O)C1OC(C)=O` (stereo not given), the T/C is 89 % of control (dose: 1.0 mg/kg/injection, schedule: Q01DX Z (ip), vehicle: other); 89 % of control (dose: 2.0 mg/kg/injection, schedule: Q01DX Z (ip), vehicle: other); 101 % of control (dose: 4.0 mg/kg/injection, schedule: Q01DX Z (ip), vehicle: other); 92 % of control (dose: 6.0 mg/kg/injection, schedule: Q01DX Z (ip), vehicle: other); 98 % of control (dose: 12.5 mg/kg/injection, schedule: Q01DX Z (ip), vehicle: other); 93 % of control (dose: 25.0 mg/kg/injection, schedule: Q01DX Z (ip), vehicle: other).
